Columns and labels:
Type in all cases: cell-based, human
[1] = test system: collagen 1A1 (COL1A1) gene expression; experiment: Collagen 1A1 gene expression in tension-applied three-dimensional artificial skin (real-time PCR); details: artificial skins prepared using means of the present invention; 10 ng/mL TGF-β in assay medium, 48 hours
Procedure: (§1) The artificial skin was such that, on the 6th day of culture, this was replaced with a medium for assay use (Dulbecco's Modified Eagle's Medium containing 1 μM hydrocortisone, 5 μg/mL insulin, and 10% fetal bovine serum). […] After using RNT solution from an RNeasy Plus Mini Kit (manufactured by Qiagen) to dissolve tissue by pulverizing with beads, phenol chloroform was used to remove protein therefrom, following which column purification was carried out as directed by the RNeasy Plus Mini Kit protocol to obtain total RNA.
(§2) SuperScript VILO Master Mix (manufactured by Invitrogen) was used as directed by the attached manual to carry out synthesis of cDNA from the purified total RNA. The synthesized cDNA was mixed with SYBR Premix Ex Taq (manufactured by Takara) and primer mix (a mixture of forward and reverse primers), 12.5 μL of reaction solution was prepared in each well of a 96-well plate for PCR use, and a QuantStudio 12K Flex (Applied Biosystems) was used to carry out real-time PCR. The real-time PCR reaction was such that 40 cycles comprising 95° C. for 30 seconds for initial denaturation, and 95° C. for 5 seconds and 60° C. for 31 seconds for the PCR reaction, were carried out. […]

[2] = test system: elastin (ELN) gene expression; experiment: Elastin gene expression in tension-applied three-dimensional artificial skin (real-time PCR); details: artificial skins prepared using means of the present invention; 10 ng/mL TGF-β in assay medium, 48 hours
Procedure: as §1, §2

[3] = test system: hyaluronan synthase (HAS3) gene expression; experiment: HAS3 gene expression in tension-applied three-dimensional artificial skin (real-time PCR); details: artificial skin of the present invention; 10 μM ATRA solution on gauze on epidermis for 1 hour, then 5 hours culture (6 hours after addition)
Procedure: The artificial skin was such that, on the 6th day of culture, this was replaced with a medium for assay use (Dulbecco's Modified Eagle's Medium containing 1 μM hydrocortisone, 5 μg/mL insulin, and 10% fetal bovine serum). On the 8th day of culture, gauze that had been impregnated with 0.2% HPC solution or 10 μM ATRA solution was placed on the surface of the epidermis, and this was cultured for 1 hour in a 5% CO2 incubator at 37° C. After 1 hour, the gauze was removed, and this was further cultured for 5 hours in a 5% CO2 incubator at 37° C. Following culture of the artificial skin for 6 hours, the artificial skin was removed from the container in such fashion as to not cause the epidermal tissue to be delaminated therefrom, and a razor was used to cut this in half. After using […] from an RNeasy Plus Mini Kit (manufactured by Qiagen) to dissolve tissue by pulverizing with beads, phenol chloroform was used to remove protein therefrom, following which column purification was carried out as directed by the RNeasy Plus Mini Kit protocol to obtain total RNA.
SuperScript VILO Master Mix (manufactured by Invitrogen) was used as directed by the attached manual to carry out synthesis of cDNA from the purified total RNA. […]

Row | Compound | increase of COL1A1 gene expression as compared with the situation when unstimulated [1] | increase of elastin (ELN) gene expression as compared with the situation when unstimulated [2] | increase of HAS3 gene expression as compared with the situation when unstimulated [3]
1 | TGF-β | ≥ 1.5 × | ≥ 3 × | –
2 | CC1=C(/C=C/C(C)=C/C=C/C(C)=C/C(=O)O)C(C)(C)CCC1 [ATRA] | – | – | ≥ 3 ×

— patent US20250101356A1, “CONTAINER FOR PRODUCING TENSION-APPLIED THREE-DIMENSIONAL ARTIFICIAL SKIN AND PRODUCTION METHOD THEREOF” (RIKEN, priority 2022, published 2025)
